According to patent publication US8030359B2, “Polymer formulations of CETP inhibitors” (Merck Sharp & Dohme Corp., priority 2006, dated 2011):
Like-named read-outs stand apart in the source and are kept apart here.

What was measured:
[1] = Pharmacokinetics (bioavailability) of formulations dosed to fasted Rhesus monkeys; format: in vivo; conditions: rhesus monkey, blood, 3 fasted Rhesus monkeys
Method: Examples of preparations of pharmaceutical formulations are provided below. Bioavailability is determined in vivo by dosing trial formulations and/or other formulations of the active pharmaceutical ingredient (API) to Rhesus monkeys (normally three monkeys per trial) at a dose of 1 mg/kg of the API and then measuring the amount of API in the serum or blood as a function of time. Comparisons are made with other formulations containing the same amount and same concentration of the API, such as a solid formulation with conventional excipients or a liquid filled gelatin capsule containing equal parts by weight of Tween 80 and Cremophor EL and varying amounts of the API. The API is any compound of Formula I to Ij, and most often is Compound H.
A formulation as described above comprised of 8.8% (w/w) Compound II, 35.2% HPMCAS-LF, 25.75% lactose monohydrate, 25.75% microcrystalline cellulose (Avicel PH 102), 3% croscarmellose sodium, 0.5% colloidal silicon dioxide, and 1% magnesium stearate was transferred to capsules (568 mg fill weight), with each capsule containing […] of Compound H. The pharmacokinetic profile of this composition was tested in a panel of 3 fasted Rhesus monkeys with a single dose of 1 mg/kg.
For comparison, a formulation containing Compound II without the polymer was made and tested, as follows. The non-polymer formulation contained 5% of Compound II, 5% SDS surfactant, 1.5% HPC-EXF, 1% croscarmellose sodium, and 87.5% lactose, and was prepared by wet granulation and used in a dry-filled capsule. The pharmacokinetic profile of this composition was measured by administering a single 1 mg/kg dose to a panel of 3 fasted Rhesus monkeys and then measuring the amount of Compound II in the blood of the monkeys for a period of at least 24 hours. […] The pharmacokinetics are not as good for the “conventional” formulation as for the polymer formulations, even though the “conventional” formulation used as a control included a surfactant.
The last 3 rows summarize pharmacokinetic data obtained by administering a single dose of the formulation at a dose of 1 mg/kg to panels of 3 fasted Rhesus monkeys and measuring the concentration of Compound II in the blood for a period of at least 24 hours. The compositions can be varied more broadly to obtain desired properties, as summarized after the table.

[2] = Phase III clinical trials, long-term outcomes study, group taking the drug compared with the control group; cited from earlier work
[3] = some patients who were taking torcetrapib; cited from earlier work
[4] = po, 1 mg/kg, HME tablet formulation with 8% Compound II, 28% copovidone, 4% Vitamin E TPGS, single dose 1 mg/kg
[5] = po, 1 mg/kg, HME tablet formulation with 10% Compound II, 35% copovidone, 5% Vitamin E TPGS, single dose 1 mg/kg
[6] = po, 1 mg/kg, HME tablet formulation with 12% Compound II, 42% copovidone, 6% Vitamin E TPGS, single dose 1 mg/kg
[7] = po, 1 mg/kg, spray dried polymer formulation in capsules (8.8% Compound II, 35.2% HPMCAS-LF), single dose 1 mg/kg, 24 hours
[8] = oral, non-polymer "conventional" control formulation (5% Compound II, 5% SDS, 1.5% HPC-EXF, 1% croscarmellose sodium, 87.5% lactose), wet granulation, dry-filled capsule, single 1 mg/kg dose

| SMILES | Cmax [1, 4] [nM] | Tmax [1, 4] [h] | AUC(0-t) ([1]; po, 1 mg/kg, HME tablet formulation with 8% Compound II, 28% copovidone, 4% Vitamin E TPGS, single dose 1 mg/kg, read-out: AUC (0-24 hrs)) [µM·h] | Cmax [1, 5] [nM] | Tmax [1, 5] [h] | AUC(0-t) ([1]; po, 1 mg/kg, HME tablet formulation with 10% Compound II, 35% copovidone, 5% Vitamin E TPGS, single dose 1 mg/kg, read-out: AUC (0-24 hrs)) [µM·h] | Cmax [1, 6] [nM] | Tmax [1, 6] [h] | AUC(0-t) ([1]; po, 1 mg/kg, HME tablet formulation with 12% Compound II, 42% copovidone, 6% Vitamin E TPGS, single dose 1 mg/kg, read-out: AUC (0-24 hrs)) [µM·h] | Cmax [1, 7] [nM] | Tmax [1, 7] [h] | AUC(0-t) ([1]; po, 1 mg/kg, spray dried polymer formulation in capsules (8.8% Compound II, 35.2% HPMCAS-LF), single dose 1 mg/kg, 24 hours, read-out: AUC0-24) [µM·h] | Cmax [1, 8] [nM] | Tmax [1, 8] [h] | mortality versus control group [2] | effect on blood pressure [3] |
| --- | --- | --- | --- | --- | --- | --- | --- | --- | --- | --- | --- | --- | --- | --- | --- | --- |
| COc1cc(F)c(C(C)C)cc1-c1ccc(C(F)(F)F)cc1CN1C(=O)O[C@H](c2cc(C(F)(F)F)cc(C(F)(F)F)c2)[C@@H]1C [Compound II, (4S,5R)-5-[3,5-bis(trifluoromethyl)phenyl]-3-{[4′-fluoro-5′-isopropyl-2′-methoxy-4-(trifluoromethyl)biphenyl-2-yl]methyl}-4-methyl-1,3-oxazolidin-2-one] | 100 ± 10 | 4 ± 2 | 1.73 ± 0.28 | 100 ± 10 | 5.3 ± 2 | 1.62 ± 0.27 | 130 ± 10 | 6.7 ± 1.2 | 2.29 ± 0.21 | 120 ± 80 | 6.7 ± 2.3 | 1.99 ± 1.1 | 40 ± 30 | 18.7 ± 9.2 |  |  |
| CCOC(=O)N1c2ccc(C(F)(F)F)cc2[C@@H](N(Cc2cc(C(F)(F)F)cc(C(F)(F)F)c2)C(=O)OC)C[C@H]1CC [torcetrapib] |  |  |  |  |  |  |  |  |  |  |  |  |  |  | increase in mortality | increase blood pressure |
